IC50 data for six molecules are collected here from US11524951B2, “2-(2,4,5-substituted-anilino)pyrimidine compounds” (AstraZeneca AB, priority 2011, dated 2022).

Common to all, as to type: cell-based
The target in one experiment is T1, Exon19 deletion EGFR (Homo sapiens, UniProt P00533, DEL746-750).
T1 construct: Assays to measure cellular phosphorylation of endogenous p-EGFR in cell lysates; endogenous in cells; host or cells: PC9 (human lung cell line)
The experiment is described as follows: Exon19 deletion EGFR (activating single mutant) cellular phosphorylation assay. The note with it: PC9 human lung cells (Exon 19 deletion EGFR); endogenous p-EGFR in cell lysates by ELISA; 2 h with compound; read-out: Assay 1 (IC50).

A further experiment concerns the target T2, Wild-type EGFR (Homo sapiens, UniProt P00533).
T2 construct: Assays to measure cellular phosphorylation of endogenous p-EGFR in cell lysates; endogenous in cells; host or cells: LoVo (human colon cell line)
The experiment is described as follows: Wild-type EGFR cellular phosphorylation assay. The note with it: LoVo human colon cells; endogenous p-EGFR in cell lysates by ELISA; 2 h with compound, then stimulated 100 ng/ml for 10 minutes; read-out: Assay 3 (IC50).

The next experiment addresses T3, L858R/T790M EGFR (Homo sapiens, UniProt P00533, L858R/T790M).
T3 construct: Assays to measure cellular phosphorylation of endogenous p-EGFR in cell lysates; endogenous in cells; host or cells: NCI-H1975 (human lung cell line)
The experiment is described as follows: L858R/T790M EGFR (double mutant) cellular phosphorylation assay. The note with it: NCI-H1975 human lung cells; endogenous p-EGFR in cell lysates by ELISA; 2 h with compound. A general note: An ELISA detects its analyte on a solid surface through an enzyme-linked reagent.

T2 sequence (P00533 25-1210): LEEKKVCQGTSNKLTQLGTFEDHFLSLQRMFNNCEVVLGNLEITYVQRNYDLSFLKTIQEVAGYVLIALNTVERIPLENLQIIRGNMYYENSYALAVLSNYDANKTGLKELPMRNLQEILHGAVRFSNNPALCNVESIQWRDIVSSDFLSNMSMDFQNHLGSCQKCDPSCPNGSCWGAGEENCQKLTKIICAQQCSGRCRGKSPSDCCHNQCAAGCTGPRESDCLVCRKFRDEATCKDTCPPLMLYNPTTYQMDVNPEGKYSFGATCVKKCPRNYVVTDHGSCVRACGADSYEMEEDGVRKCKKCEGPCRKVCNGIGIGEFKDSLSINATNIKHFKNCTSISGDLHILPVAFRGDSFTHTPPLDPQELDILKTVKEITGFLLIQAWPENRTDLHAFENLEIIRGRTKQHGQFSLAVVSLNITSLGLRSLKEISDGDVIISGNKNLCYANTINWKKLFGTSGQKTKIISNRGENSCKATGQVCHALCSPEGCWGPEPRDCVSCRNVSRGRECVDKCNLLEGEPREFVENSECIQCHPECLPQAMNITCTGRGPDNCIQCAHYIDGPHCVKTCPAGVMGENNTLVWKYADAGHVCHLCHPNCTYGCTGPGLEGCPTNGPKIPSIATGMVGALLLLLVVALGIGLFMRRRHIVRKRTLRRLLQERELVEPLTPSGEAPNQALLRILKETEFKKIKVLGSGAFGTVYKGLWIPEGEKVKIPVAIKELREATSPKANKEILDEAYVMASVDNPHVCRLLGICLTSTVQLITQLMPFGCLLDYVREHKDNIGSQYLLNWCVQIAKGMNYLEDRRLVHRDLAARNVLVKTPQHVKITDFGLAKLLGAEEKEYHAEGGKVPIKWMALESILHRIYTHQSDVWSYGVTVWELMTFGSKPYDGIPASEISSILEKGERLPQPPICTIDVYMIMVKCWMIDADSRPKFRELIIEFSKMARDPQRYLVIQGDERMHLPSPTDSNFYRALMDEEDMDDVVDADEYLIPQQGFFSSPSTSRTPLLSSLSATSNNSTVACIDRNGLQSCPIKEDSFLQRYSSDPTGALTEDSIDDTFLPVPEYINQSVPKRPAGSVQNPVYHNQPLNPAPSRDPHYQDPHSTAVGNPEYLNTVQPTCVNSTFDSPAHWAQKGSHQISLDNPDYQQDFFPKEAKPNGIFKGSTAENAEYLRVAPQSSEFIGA
T1 sequence (P00533 with tags, fused parts or gaps DEL746-750): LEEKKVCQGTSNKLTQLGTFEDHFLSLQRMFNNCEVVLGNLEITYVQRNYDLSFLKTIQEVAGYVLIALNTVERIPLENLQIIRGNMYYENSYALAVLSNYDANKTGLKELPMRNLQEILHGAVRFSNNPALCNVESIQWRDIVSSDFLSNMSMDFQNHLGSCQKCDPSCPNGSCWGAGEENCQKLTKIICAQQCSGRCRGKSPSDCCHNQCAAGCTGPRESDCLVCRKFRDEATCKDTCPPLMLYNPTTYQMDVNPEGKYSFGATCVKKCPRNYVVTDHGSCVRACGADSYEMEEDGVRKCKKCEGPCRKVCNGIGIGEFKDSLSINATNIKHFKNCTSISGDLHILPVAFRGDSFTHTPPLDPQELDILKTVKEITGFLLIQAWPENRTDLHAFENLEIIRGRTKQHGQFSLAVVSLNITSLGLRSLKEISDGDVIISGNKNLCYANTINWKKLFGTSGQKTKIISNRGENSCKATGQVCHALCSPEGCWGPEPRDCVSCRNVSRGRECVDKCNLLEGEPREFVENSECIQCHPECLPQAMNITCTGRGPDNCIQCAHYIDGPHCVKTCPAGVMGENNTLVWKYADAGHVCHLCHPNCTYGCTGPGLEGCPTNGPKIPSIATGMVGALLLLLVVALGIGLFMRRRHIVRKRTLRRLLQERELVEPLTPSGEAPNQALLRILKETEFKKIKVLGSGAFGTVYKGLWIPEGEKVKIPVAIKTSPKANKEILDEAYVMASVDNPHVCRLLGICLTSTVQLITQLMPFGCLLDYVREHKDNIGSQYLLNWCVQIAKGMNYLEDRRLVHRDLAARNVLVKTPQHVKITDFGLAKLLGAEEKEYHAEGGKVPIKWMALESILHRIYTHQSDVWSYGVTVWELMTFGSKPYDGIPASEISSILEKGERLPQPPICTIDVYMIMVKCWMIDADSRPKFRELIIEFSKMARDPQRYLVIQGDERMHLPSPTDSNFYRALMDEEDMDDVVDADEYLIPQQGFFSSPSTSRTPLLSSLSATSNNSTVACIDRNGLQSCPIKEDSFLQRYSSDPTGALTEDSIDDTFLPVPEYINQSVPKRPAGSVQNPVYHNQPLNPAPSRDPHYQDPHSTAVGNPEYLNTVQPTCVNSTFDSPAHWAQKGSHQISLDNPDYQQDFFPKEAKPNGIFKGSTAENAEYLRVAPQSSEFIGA
T3 sequence (P00533 25-1210 T790M/L858R): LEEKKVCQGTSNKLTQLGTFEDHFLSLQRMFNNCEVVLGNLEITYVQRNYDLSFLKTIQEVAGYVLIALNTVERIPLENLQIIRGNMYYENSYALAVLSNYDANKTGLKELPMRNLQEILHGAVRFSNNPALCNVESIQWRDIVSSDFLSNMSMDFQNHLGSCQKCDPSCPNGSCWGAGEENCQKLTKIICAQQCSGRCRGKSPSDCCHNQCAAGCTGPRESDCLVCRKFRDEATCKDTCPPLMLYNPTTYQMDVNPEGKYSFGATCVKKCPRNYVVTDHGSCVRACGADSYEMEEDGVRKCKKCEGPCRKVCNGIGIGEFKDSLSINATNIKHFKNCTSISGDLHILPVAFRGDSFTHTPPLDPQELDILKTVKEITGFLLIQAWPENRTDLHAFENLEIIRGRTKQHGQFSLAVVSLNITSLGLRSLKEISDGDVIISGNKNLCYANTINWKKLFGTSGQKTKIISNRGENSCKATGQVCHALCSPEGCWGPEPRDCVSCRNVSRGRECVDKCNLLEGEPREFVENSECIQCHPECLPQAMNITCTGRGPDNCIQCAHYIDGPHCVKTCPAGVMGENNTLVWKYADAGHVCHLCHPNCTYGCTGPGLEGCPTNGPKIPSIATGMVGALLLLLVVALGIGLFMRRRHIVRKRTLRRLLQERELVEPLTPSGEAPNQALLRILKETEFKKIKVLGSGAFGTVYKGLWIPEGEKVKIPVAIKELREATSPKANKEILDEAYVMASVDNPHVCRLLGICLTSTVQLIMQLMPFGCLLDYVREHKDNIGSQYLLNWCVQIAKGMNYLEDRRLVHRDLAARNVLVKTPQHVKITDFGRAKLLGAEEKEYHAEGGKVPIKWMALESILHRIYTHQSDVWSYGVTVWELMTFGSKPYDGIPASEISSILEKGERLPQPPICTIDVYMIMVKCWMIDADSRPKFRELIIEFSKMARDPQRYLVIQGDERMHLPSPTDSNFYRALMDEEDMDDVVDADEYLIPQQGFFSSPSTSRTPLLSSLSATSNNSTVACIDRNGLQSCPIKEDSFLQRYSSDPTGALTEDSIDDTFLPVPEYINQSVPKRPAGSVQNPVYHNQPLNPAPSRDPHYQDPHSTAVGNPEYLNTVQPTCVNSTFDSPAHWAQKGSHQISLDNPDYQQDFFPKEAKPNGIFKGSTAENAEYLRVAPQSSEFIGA

Broadly, the IC50 is the concentration that gives 50% inhibition. Turning to `C=CC(=O)Nc1cc(Nc2nccc(-c3cnn4ccccc34)n2)c(OC)cc1N1CC[C@@H]2CN(C)C[C@@H]21` [Example 55, N-[2-[(3aR,6aR)-5-Methyl-2,3,3a,4,6,6a-hexahydropyrrolo[3,4-b]pyrrol-1-yl]-4-methoxy-5-[(4-pyrazolo[1,5-a]pyridin-3-ylpyrimidin-2-yl)amino]phenyl]prop-2-enamide], the IC50 on Exon19 deletion EGFR came out at 6.43 nM; on Wild-type EGFR it was 507 nM; on L858R/T790M EGFR, 2.86 nM.

Turning to `C=CC(=O)Nc1cc(Nc2nccc(-c3cnn4ccccc34)n2)c(OC)cc1N1CC2(CCCN2C)C1` [Example 56, N-{4-Methoxy-2-[8-methyl-2,8-diazaspiro[3.4]octan-2-yl]-5-[(4-pyrazolo[1,5-a]pyridin-3-ylpyrimidin-2-yl)amino]phenyl}prop-2-enamide], the IC50 was 44.3 nM on Exon19 deletion EGFR, 3500 nM at Wild-type EGFR and 29.2 nM at L858R/T790M EGFR.

Take `C=CC(=O)Nc1cc(Nc2nccc(-c3c[nH]c4ccccc34)n2)c(OC)cc1N1CC[C@@H](N(C)C)C1` [Example 57, N-(2-{(3R)-3-Dimethylaminopyrrolidin-1-yl}-5-{[4-(1H-indol-3-yl)pyrimidin-2-yl]amino}-4-methoxyphenyl)prop-2-enamide]: the IC50 on Exon19 deletion EGFR was 6.45 nM; at Wild-type EGFR, 89.3 nM; at L858R/T790M EGFR it was 14.5 nM.

With `C=CC(=O)Nc1cc(Nc2nccc(-c3c[nH]c4ccccc34)n2)c(OC)cc1N1CC(N(C)C)C1` [Example 58, N-(2-[3-Dimethylaminoazetidin-1-yl]-5-{[4-(1H-indol-3-yl)pyrimidin-2-yl]amino}-4-methoxyphenyl)prop-2-enamide], the IC50 was 7.08 nM at Exon19 deletion EGFR, 179 nM on Wild-type EGFR and 16.8 nM at L858R/T790M EGFR.

Turning to `C=CC(=O)Nc1cc(Nc2nccc(-c3c[nH]c4ccccc34)n2)c(OC)cc1N(C)CCN(C)C` [Example 59, N-(2-[2-Dimethylaminoethyl-methylamino]-5-{[4-(1H-indol-3-yl)pyrimidin-2-yl]amino}-4-methoxyphenyl)prop-2-enamide], the concentration for half-maximal inhibition (IC50) on Exon19 deletion EGFR came to 2.27 nM; at Wild-type EGFR it was 28.2 nM; on L858R/T790M EGFR it was 3.02 nM.

Turning to `C=CC(=O)Nc1cc(Nc2nccc(-c3cn(C)c4ccccc34)n2)c(OC)cc1N(C)CCNC` [Example 60, N-(4-Methoxy-5-{[4-(1-methylindol-3-yl)pyrimidin-2-yl]amino}-2-[methyl-(2-methylaminoethyl)amino]phenyl)prop-2-enamide], the figures for the IC50 on Exon19 deletion EGFR, on Wild-type EGFR and on L858R/T790M EGFR were 14.6 nM, 624 nM and 48.9 nM, respectively.
